Values of other authors in US8541386B2, “Cannabinoid 2 (CB2) receptor gene promoter and unique RNA transcripts in B cells and methods of use” (University of South Florida, priority 2009, dated 2013).

Tested on: IL-4/anti-CD40 stimulated B cells
Conditions: co-treatment of IL-4/anti-CD40 stimulated B cells; earlier work of the inventors' lab

In the case of `CCCCCCC(C)(C)c1ccc([C@@H]2C[C@H](O)CC[C@H]2CCCO)c(O)c1` [CP55940], the “immunoglobulin class switching to IgE” value is given as “increased immunoglobulin class switching to IgE”.
